Assay results: patent US20170327598A1, “SINGLE DOMAIN ANTIBODIES DIRECTED AGAINST INTRACELLULAR ANTIGENS” (SINGH MOLECULAR MEDICINE, LLC, priority 2014, published 2017)
Several values for one entry are separate records, joined by “and”; a condition that tells them apart may be missing. Equal values may be shown once.

How the values were obtained:
PANC-1 cells = assay: PANC-1 growth inhibition with or without Gemcitabine; conditions: for Absorbance: 72 hours
PANC-1 xenograft = assay: PANC-1 xenograft, sdAb alone, Gemcitabine alone or combination, Example 19; conditions: for BODY WEIGHT (g) Mean / TUMOR VOLUMES (mm^3) Mean / % INHIBITION OF CONTROL (tumor growth): SBT-100 5 mg/kg BID, Gemcitabine 20 mg/kg, or both
endogenous STAT3 = biological target: T1, endogenous STAT3 (Homo sapiens, UniProt P40763); assay: Immunoprecipitation of endogenous STAT3 from MDA-MB-231 lysate, Western blot; assay type: binding; conditions: FIG. 3
T1 construct: endogenous STAT3 immunoprecipitated with all sdAbs tested at varying amounts; endogenous in cells
T1 sequence (P40763 whole entry): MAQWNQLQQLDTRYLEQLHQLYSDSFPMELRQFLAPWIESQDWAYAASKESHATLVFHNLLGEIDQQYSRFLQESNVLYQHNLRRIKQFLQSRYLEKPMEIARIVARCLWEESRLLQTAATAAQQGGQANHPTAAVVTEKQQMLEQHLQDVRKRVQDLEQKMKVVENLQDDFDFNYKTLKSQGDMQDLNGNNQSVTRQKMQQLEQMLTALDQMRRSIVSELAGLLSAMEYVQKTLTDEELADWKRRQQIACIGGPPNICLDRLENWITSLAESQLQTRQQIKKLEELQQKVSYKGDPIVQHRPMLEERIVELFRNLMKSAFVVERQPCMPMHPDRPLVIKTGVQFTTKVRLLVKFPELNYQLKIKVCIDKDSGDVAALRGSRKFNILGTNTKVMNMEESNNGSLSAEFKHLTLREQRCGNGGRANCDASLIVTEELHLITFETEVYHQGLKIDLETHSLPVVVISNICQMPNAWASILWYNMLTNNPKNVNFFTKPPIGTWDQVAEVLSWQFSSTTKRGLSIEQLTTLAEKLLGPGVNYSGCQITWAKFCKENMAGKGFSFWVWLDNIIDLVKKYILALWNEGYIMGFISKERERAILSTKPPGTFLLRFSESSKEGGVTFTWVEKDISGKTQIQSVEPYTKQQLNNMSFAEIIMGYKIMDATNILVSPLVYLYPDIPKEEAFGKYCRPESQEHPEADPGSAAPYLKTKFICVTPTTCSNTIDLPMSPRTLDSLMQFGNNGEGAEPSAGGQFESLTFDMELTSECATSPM
Experimental: The specificity of STAT3 sdAbs was assayed in human breast cancer cells. […] The cells were then disrupted in freshly prepared ice-cold lysis buffer (20 mM HEPES, pH 7.9, 400 mM NaCl, 0.1% NP-40, 10% glycerol, 1 mM sodium vanadate, 1 mM sodium fluoride, 1 mM dithiothreitol, 1 mM phenylmethylsulfonyl fluoride, 10 μg/mL aprotinin, 10 μg/mL leupeptin) for 45 minutes on ice. Lysates were then centrifuged, the supernatant collected, and protein concentration was determined using a modified Lowry method (Bio Rad, Hercules, Calif.). Total protein (1 mg) was incubated with 1.5 mg of Dynabeads (Invitrogen) with sdAbs against STAT3, a positive control (STAT3, cat#SC-482, Santa Cruz Biotechnology, Dallas, Tex.), or negative control (STAT-1, cat#9172, Cell Signaling, Danvers, Mass.) for 1 hour at 4° C. Beads were then washed. Following the final wash, 60 μl of lysis buffer was added, and the resulting supernatant was subject to Western blot analysis. Briefly, samples were separated on 10% polyacrylamide gels and transferred to a nitrocellulose membrane. The membranes were blocked, then incubated with appropriate primary and secondary antibodies. Anti-STAT3 antibody, used as a positive control, was from Cell Signaling (Cat#4904, Danvers, Mass.). The chemiluminescence reaction was performed using the ECL system from Santa Cruz Biotechnology (Dallas, Tex.).

[1] = test system: STAT3 reporter, induction by interleukin-6; assay: STAT3 reporter GloResponse SIE-luc2P/HEK293 cell assay, IL-6 induction; assay type: cell-based; conditions: for effect on IL-6 induction of STAT3 reporter: 24 hours and 48 hours treatment prior to IL-6;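 as to all read-outs here: IL-6 added at 40 ng/mL (EC80) for roughly one day after pretreatment, luciferase luminescence read with Bio-Glo reagent, untreated +IL6 wells serve as control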
[2] = test system: GloResponse SIE-luc2P/HEK 293 cells; assay: BCA protein concentration of reporter cells run in parallel; assay type: cell-based
[3] = biological target: T2, active human TNF-α full length protein (Homo sapiens, UniProt P01375); assay: TNF ELISA, binding of anti-TNF-α sdAbs to coated TNF-α protein; conditions: for detection in coated versus non-coated wells: 1 μg/mL sdAb, 0.5 μg/mL coating antigen; for binding to the TNF-α protein, detection: Experiment 1, 1 μg/mL sdAb; for OD450 Values: Non-Coated wells, sdAb 1 μg/mL, non-specific binding
T2 construct: purchased Abcam
T2 sequence (P01375 77-233 limits assumed): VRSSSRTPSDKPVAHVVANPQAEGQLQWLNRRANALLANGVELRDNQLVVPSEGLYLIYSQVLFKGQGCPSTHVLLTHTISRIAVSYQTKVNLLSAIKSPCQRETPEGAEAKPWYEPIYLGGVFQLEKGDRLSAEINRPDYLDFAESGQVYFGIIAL
Experimental: In this Example, the binding of anti-TNF-α sdAbs to active human TNF-α full length protein was assessed using an enzyme linked immunosorbent assay (ELISA) format. Additionally, the feasibility of utilizing a secondary antibody targeted to the his tag portion of the sdAbs was assessed.
Plates were incubated overnight at 2-8° C. After the incubation, plates were washed (3×) and blocked (3% Bovine Serum Albumin (BSA) in Phosphate Buffered Saline (PBS)) for at least one hour at room temperature.
After removal of the blocking buffer and washing (3×), samples were added to the appropriate wells of the ELISA plates and incubated at room temperature with shaking (150 rpm) for at least one hour. The secondary antibody (rabbit anti-llama biotinylated antibody at either a 1:5,000 or 10,000 dilution) was then added to each well and incubated with shaking for at least one hour at room temperature.
After the incubation with secondary antibody, the plates were again washed (3×) and horseradish peroxidase (HRP) at either a 1:25,000 or 1:50,000 dilution was added to each well. Plates were incubated with shaking for at least one hour at room temperature. A final wash (3×) was performed followed by the addition of TMB (Tetramethylbenzidine) substrate. After a 20 to 25 minute incubation at room temperature, stop solution was added to halt the colorimetric reaction. The absorbance at 450 nm was measured on a VersaMax instrument utilizing SoftMax Pro GxP version 5.4 software from Molecular Devices (Sunnyvale, Calif.).
The final experiment performed was to confirm that the results from the ELISA testing were due to binding to the TNF-α protein and not non-specific binding of the sdAb. For this determination, a comparison was made between wells coated with 0.5 μg/mL of coating antigen and non-coated wells. […] This experiment confirms that the detection seen with the previous experiments was due to the specific binding of the VHH to the coating antigen and not due to non-specific binding.

[4] = test system: rabbit anti-llama biotinylated antibody or his-probe (H-3) biotin labeled antibody; assay: ELISA with sdAbs coated, binding of secondary antibodies (Experiments 2 and 3)
Experimental: Two assays (Experiment 2 and 3) were performed to assess the binding of the secondary antibody to the sdAbs. A similar ELISA method was utilized except the sdAbs were directly coated onto the assay plate at a concentration of 1 μg/mL. Plates were incubated overnight at 2-8° C. After the incubation, plates were washed (3×) and blocked (3% BSA in PBS) for at least one hour at room temperature.
After removal of the blocking buffer and washing (3×), the secondary antibodies, either rabbit anti-llama biotinylated antibody or his-probe (H-3) biotin labeled antibody at was then added at a 1:5,000 dilution to each well and incubated with shaking for at least one hour at room temperature. Only the rabbit anti-llama biotinylated antibody was used in Experiment 2. Both antibodies were run in parallel in Experiment 3.
After the incubation with secondary antibody, the plates were again washed (3×) and HRP at a 1:50,000 dilution was added to each well. Plates were incubated with shaking for at least one hour at room temperature. One last wash (3×) was performed followed by the addition of TMB substrate and plates were incubated at room temperature. For the anti-llama biotinylated antibody stop solution was added to halt the colorimetric reaction at 10 minutes. The his-probe (H-3) biotin labeled antibody was allowed to incubate for 20 minutes prior to stopping. The absorbance at 450 nm was measured as before.

[5] = 24 Hour Treatment Prior to IL6 Induction, high conc.: VHH13 55.8 μg/mL, VHH14 84.3 μg/mL, BB1608 4.16 μM, VHH69 50.5 μg/mL
[6] = 24 Hour Treatment Prior to IL6 Induction, low conc.: VHH13, VHH14, VHH69 10 μg/mL, BB1608 2 μM
[7] = 48 Hour Treatment Prior to IL6 Induction, high conc.: VHH13 55.8 μg/mL, VHH14 84.3 μg/mL, BB1608 4.16 μM, VHH69 50.5 μg/mL
[8] = 48 Hour Treatment Prior to IL6 Induction, low conc.: VHH13, VHH14, VHH69 10 μg/mL, BB1608 2 μM
[9] = His-probe (H-3), Experiment 3, stored 1:100 dilution of sdAb
[10] = Rabbit anti-Llama Secondary Antibody, Experiment 2, sdAb coated at 1 μg/mL
[11] = Rabbit anti-Llama Secondary Antibody, Experiment 3, stored 1:100 dilution of sdAb

## Nc1ccn([C@@H]2O[C@H](CO)[C@@H](O)C2(F)F)c(=O)n1 [Gemcitabine]
PANC-1 cells; Gemcitabine 0.020 μM in DMSO
  Absorbance: 1.560
PANC-1 cells; Gemcitabine 0.039 μM in DMSO
  Absorbance: 1.240
PANC-1 cells; Gemcitabine 0.625 μM in DMSO
  Absorbance: 1.050
PANC-1 cells; Gemcitabine 5 μM in DMSO
  Absorbance: 0.631
PANC-1 cells; Gemcitabine 10 μM in DMSO
  Absorbance: 0.543
PANC-1 cells; Homo sapiens, PANC-1, read-out: IC50 concentration
  IC50: 10 µM
PANC-1 xenograft; Day 1 (start of treatment), SBT-100 5 mg/kg IP BID × 14, Gemcitabine 20 mg/kg IP QD × 7, or both
  Mean Tumour Size (mm^3) Day 1: 122.23 ± 23.46 mm^3
PANC-1 xenograft; Day 1
  BODY WEIGHT (g) Mean: 23.77 g
  TUMOR VOLUMES (mm^3) Mean: 122.23 mm^3
PANC-1 xenograft; Day 5
  BODY WEIGHT (g) Mean: 23.47 g
  TUMOR VOLUMES (mm^3) Mean: 165.57 mm^3
PANC-1 xenograft; Day 8
  BODY WEIGHT (g) Mean: 23.37 g
  TUMOR VOLUMES (mm^3) Mean: 183.88 mm^3
PANC-1 xenograft; Day 12
  % INHIBITION OF CONTROL (tumor growth): 19.51%
  BODY WEIGHT (g) Mean: 23.13 g
  TUMOR VOLUMES (mm^3) Mean: 191.6 mm^3
PANC-1 xenograft; Day 15
  % INHIBITION OF CONTROL (tumor growth): 23.17%
  TUMOR VOLUMES (mm^3) Mean: 246.48 mm^3
PANC-1 xenograft; Day 19
  % INHIBITION OF CONTROL (tumor growth): 23.26%
  BODY WEIGHT (g) Mean: 23.97 g
  TUMOR VOLUMES (mm^3) Mean: 312.74 mm^3
PANC-1 xenograft; Day 22
  % INHIBITION OF CONTROL (tumor growth): 14.93%
  BODY WEIGHT (g) Mean: 24.55 g
  TUMOR VOLUMES (mm^3) Mean: 411.93 mm^3

## STAT-1: negative control in immunoprecipitation (STAT-1, cat#9172, Cell Signaling) [reference compound]
Endogenous STAT3
  immunoprecipitation of endogenous STAT3: no band

## CC(=O)c1cc2c(o1)C(=O)c1ccccc1C2=O [BB1608, napabucasin, reference compound]
[1]; [5]
  Average RLU: 33 RLU
  Average RLU with Media Blank: 8 RLU
  Fold-Induction RLU/RLU of-IL6: 0
  Luminescence (RLU), single wells: 41 RLU and 28 RLU and 31 RLU
[1]; [6]
  Average RLU: 38 RLU
  Average RLU with Media Blank: 12 RLU
  Fold-Induction RLU/RLU of-IL6: 0
  Luminescence (RLU), single wells: 41 RLU and 33 RLU and 39 RLU
[1]; [7]
  Average RLU: 29 RLU
  Average RLU with Media Blank: −3 RLU
  Fold-Induction RLU/RLU of−IL6: 0
  Luminescence (RLU), single wells: 25 RLU and 31 RLU and 32 RLU
[1]; [8]
  Average RLU: 33 RLU
  Average RLU with Media Blank: 0 RLU
  Fold-Induction RLU/RLU of−IL6: 0
  Luminescence (RLU), single wells: 26 RLU and 42 RLU and 31 RLU
[1]
  effect on IL-6 induction of STAT3 reporter: Inhibition of IL-6
[2]; [5]
  Protein concentration: 174
[2]; [6]
  Protein concentration: 425
[2]; [7]
  Protein concentration: 165
[2]; [8]
  Protein concentration: 324

B1: anti-TNF-alpha VHH62: third anti-TNF-alpha single domain antibody, SEQ ID NO:47 (protein)
VHH: QVQLVESGGGPVQAGETLRLSCTASGFTFAEADMGWYRQAPGHECELVSTITTEGITSEASSYYADSVRGRFTISRDNAKNMVYLQMNSLKPEDTAVYYCAPDPYAYSTYSDYCSWAQGTQGTLVTVSS
modifications: Camelid
[3]
  detection in coated versus non-coated wells: not detected in either coated or non-coated wells
  binding to the TNF-α protein, detection: little to no detection
  OD450 Values: −0.001
[3]; Experiment 4, 10-fold serial dilutions starting at 1 μg/mL
  OD values: < 0.2 OD450
[4]; [9]
  OD450 Values: 0.196
[4]; [10]
  OD450 Values: 1.485
[4]; [11]
  OD450 Values: 2.341

B2: anti-TNF-alpha VHH69: second anti-TNF-alpha single domain antibody, SEQ ID NO:46 (protein)
VHH: EVQLVESGGGSVLAGGSLRLSCVASGFTSRYNYMAWFRQAPGKEREGVATIGTASGSADYYGSVKDRFTISQDNAKNTVYLQMNSLKPEDTAMYYCAARTYGTISLTPSDYRYWGQGTLVTVSS
modifications: Camelid
[1]; [5]
  Average RLU: 198596 RLU
  Average RLU with Media Blank: 198571 RLU
  Fold-Induction RLU/RLU of-IL6: 434
  Luminescence (RLU), single wells: 203139 RLU and 194320 RLU and 198330 RLU
[1]; [6]
  Average RLU: 169752 RLU
  Average RLU with Media Blank: 169726 RLU
  Fold-Induction RLU/RLU of-IL6: 371
  Luminescence (RLU), single wells: 159115 RLU and 184364 RLU and 165776 RLU
[1]; [7]
  Average RLU: 225726 RLU
  Average RLU with Media Blank: 225694 RLU
  Fold-Induction RLU/RLU of−IL6: 452
  Luminescence (RLU), single wells: 237816 RLU and 220259 RLU and 219104 RLU
[1]; [8]
  Average RLU: 172988 RLU
  Average RLU with Media Blank: 172955 RLU
  Fold-Induction RLU/RLU of−IL6: 347
  Luminescence (RLU), single wells: 191241 RLU and 171796 RLU and 155927 RLU
[1]
  effect on IL-6 induction of STAT3 reporter: enhancement of the IL-6 induction
[2]; [5]
  Protein concentration: 213
[2]; [6]
  Protein concentration: 237
[2]; [8]
  Protein concentration: 222
[3]
  detection in coated versus non-coated wells: detected in coated wells but not in non-coated wells
  binding to the TNF-α protein, detection: little to no detection
  OD450 Values: 0.007
[4]; [9]
  OD450 Values: 0.153
[4]; [10]
  OD450 Values: 0.499
[4]; [11]
  OD450 Values: 0.443
